Experimental data reported in ChEMBL document CHEMBL5233247, “Recent advances in DNA gyrase-targeted antimicrobial agents” (Eur J Med Chem, 2020).
pIC50: −log10 of the molar value. ≈ marks a conversion by molar mass, not a printed value.

Tests used:
[1] = target: DNA gyrase (Escherichia coli, UniProt P0AES4+P0AES6); test: Inhibition of Escherichia coli DNA gyrase; format: protein-complex assay
[2] = test system: Escherichia coli; test: Antibacterial activity against Escherichia coli assessed as zone of inhibition; format: functional
[3] = test system: Aggregatibacter actinomycetemcomitans; test: Antibacterial activity against Aggregatibacter actinomycetemcomitans; format: functional
[4] = test system: Bacillus subtilis; test: Antibacterial activity against Bacillus subtilis; format: functional
[5] = test system: Staphylococcus aureus; test: Antibacterial activity against methicillin-sensitive Staphylococcus aureus; format: functional, organism-based
[6] = test system: Staphylococcus aureus; test: Antibacterial activity against healthcare-acquired methicillin-resistant Staphylococcus aureus; format: functional
[7] = test system: Staphylococcus aureus; test: Antibacterial activity against community-acquired methicillin-resistant Staphylococcus aureus; format: functional
[8] = test system: Enterococcus faecalis; test: Antibacterial activity against Enterococcus faecalis; format: functional
[9] = test system: Streptococcus pneumoniae; test: Antibacterial activity against Streptococcus pneumoniae; format: functional
[10] = test system: Acinetobacter baumannii; test: Antibacterial activity against Acinetobacter baumannii; format: functional
[11] = target: DNA gyrase subunit A/DNA gyrase subunit B (Mycobacterium tuberculosis (strain ATCC 25618 / H37Rv), UniProt P9WG45+P9WG47); test: Inhibition of Mycobacterium tuberculosis DNA gyrase; format: protein-complex assay
[12] = test system: Mycobacterium tuberculosis; test: Antitubercular activity against Mycobacterium tuberculosis H37Rv MTCC-200; format: functional
[13] = test system: Staphylococcus aureus; test: Antibacterial activity against Staphylococcus aureus; format: functional
[14] = test system: Bacillus cereus; test: Antibacterial activity against Bacillus cereus; format: functional
[15] = test system: Escherichia coli; test: Antibacterial activity against Escherichia coli; format: functional
[16] = test system: Klebsiella pneumoniae; test: Antibacterial activity against Klebsiella pneumoniae; format: functional
[17] = test system: Pseudomonas aeruginosa; test: Antibacterial activity against Pseudomonas aeruginosa; format: functional
[18] = test system: Mycolicibacterium smegmatis; test: Antibacterial activity against Mycobacterium smegmatis; format: functional
[19] = test system: Staphylococcus aureus; test: Antimicrobial activity against Staphylococcus aureus MSCL 334 assessed as inhibition of bacterial growth incubated for 24 hrs by standardized broth dilution method; format: functional
[20] = test system: Bacillus subtilis; test: Antimicrobial activity against Bacillus subtilis assessed as inhibition of bacterial growth incubated for 24 hrs by standardized broth dilution method; format: functional
[21] = test system: Escherichia coli; test: Antimicrobial activity against Escherichia coli MSCL 332 assessed as inhibition of bacterial growth incubated for 24 hrs by standardized broth dilution method; format: functional
[22] = test system: Staphylococcus aureus; test: Antimicrobial activity against Staphylococcus aureus assessed as inhibition of visible growth incubated for 24 hrs by agar-dilution method; format: functional
[23] = test system: Listeria monocytogenes; test: Antimicrobial activity against Listeria monocytogenes assessed as inhibition of visible growth incubated for 24 hrs by agar-dilution method; format: functional
[24] = test system: Escherichia coli; test: Antimicrobial activity against Escherichia coli assessed as inhibition of visible growth incubated for 24 hrs by agar-dilution method; format: functional
[25] = test system: Salmonella enterica subsp. enterica serovar Gallinarum; test: Antimicrobial activity against Salmonella gallinarum assessed as inhibition of visible growth incubated for 24 hrs by agar-dilution method; format: functional

DNA gyrase subunit A/DNA gyrase subunit B, sequence (P9WG45 whole entry): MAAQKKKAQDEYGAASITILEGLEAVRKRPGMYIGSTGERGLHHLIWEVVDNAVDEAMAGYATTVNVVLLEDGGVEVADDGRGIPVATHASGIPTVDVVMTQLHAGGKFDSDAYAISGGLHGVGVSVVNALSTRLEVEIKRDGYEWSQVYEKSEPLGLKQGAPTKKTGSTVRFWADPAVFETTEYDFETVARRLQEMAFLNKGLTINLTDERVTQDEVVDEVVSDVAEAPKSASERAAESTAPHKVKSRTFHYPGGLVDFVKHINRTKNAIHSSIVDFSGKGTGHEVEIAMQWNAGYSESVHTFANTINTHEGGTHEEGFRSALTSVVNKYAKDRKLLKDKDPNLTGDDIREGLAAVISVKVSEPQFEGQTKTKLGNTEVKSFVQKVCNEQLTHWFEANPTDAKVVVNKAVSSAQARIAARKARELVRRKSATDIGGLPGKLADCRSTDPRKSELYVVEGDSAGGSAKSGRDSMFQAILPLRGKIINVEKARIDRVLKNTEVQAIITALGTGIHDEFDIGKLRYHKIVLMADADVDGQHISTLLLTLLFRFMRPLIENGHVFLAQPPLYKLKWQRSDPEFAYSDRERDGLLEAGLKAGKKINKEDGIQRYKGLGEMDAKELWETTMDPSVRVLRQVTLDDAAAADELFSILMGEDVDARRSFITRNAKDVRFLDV
DNA gyrase subunit A/DNA gyrase subunit B, sequence (P9WG47 whole entry): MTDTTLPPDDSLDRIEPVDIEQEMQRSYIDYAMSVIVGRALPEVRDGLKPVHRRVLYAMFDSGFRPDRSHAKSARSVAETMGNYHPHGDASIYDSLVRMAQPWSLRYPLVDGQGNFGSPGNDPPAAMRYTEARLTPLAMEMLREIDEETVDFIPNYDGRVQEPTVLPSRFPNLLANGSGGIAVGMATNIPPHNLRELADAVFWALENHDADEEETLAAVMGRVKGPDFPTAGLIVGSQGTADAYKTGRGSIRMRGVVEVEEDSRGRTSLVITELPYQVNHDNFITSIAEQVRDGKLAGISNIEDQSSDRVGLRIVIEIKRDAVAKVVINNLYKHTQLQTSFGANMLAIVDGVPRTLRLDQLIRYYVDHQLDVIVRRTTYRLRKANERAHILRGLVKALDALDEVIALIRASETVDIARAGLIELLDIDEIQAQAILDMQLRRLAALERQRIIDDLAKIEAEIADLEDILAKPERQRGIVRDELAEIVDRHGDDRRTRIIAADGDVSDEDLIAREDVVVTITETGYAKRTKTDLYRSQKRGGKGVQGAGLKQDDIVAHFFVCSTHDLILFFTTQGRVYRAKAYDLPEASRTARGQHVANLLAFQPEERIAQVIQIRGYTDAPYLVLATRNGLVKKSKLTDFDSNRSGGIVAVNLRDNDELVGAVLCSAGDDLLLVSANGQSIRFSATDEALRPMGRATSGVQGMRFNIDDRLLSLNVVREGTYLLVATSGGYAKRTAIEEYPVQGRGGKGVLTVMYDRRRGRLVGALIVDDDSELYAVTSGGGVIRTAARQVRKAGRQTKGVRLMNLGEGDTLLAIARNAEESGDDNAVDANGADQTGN

## CCn1cc(-c2nc(/N=C/c3ccc(Br)cc3)n[nH]2)c(=O)c2cc(Br)c(C)nc21
[1]
  pIC50: 5.47
[2]
  inhibition zone (IZ): 23 mm

## CCn1cc(-c2nc(NC(=O)c3ccccc3)n[nH]2)c(=O)c2cc(Br)c(C)nc21
[3]
  MIC: 4.25 µM (≈ 1.93 µg/mL)

## CCn1cc(-c2nc(NC(=O)c3ccccc3)n[nH]2)c(=O)c2ccc(C)nc21
[1]
  pIC50: 4.98
[4]
  MIC: 3.68 µM (≈ 1.38 µg/mL)

## COc1c(N2CC3CCCCC3C2)c(F)cc2c(=O)c(C(=O)N3CCSC3)cn(C3CC3)c12 (stereo not drawn)
[5]
  MIC: 0.79 µg/mL (≈ 1.68 µM)
[6]
  MIC: 0.79 µg/mL (≈ 1.68 µM)
[7]
  MIC: 25 µg/mL (≈ 53 µM)
[8]
  MIC: 12.6 µg/mL (≈ 26.7 µM)
[9]
  MIC: 50 µg/mL (≈ 106 µM)
[10]
  MIC: 101 µg/mL (≈ 214 µM)
[11]
  pIC50: 3.98

## O=C1Nc2ccccc2/C1=C/c1ccc(OC(=O)c2ccccc2)cc1
[12]
  MIC: 73 µg/mL (≈ 214 µM)

## CCn1cc(-c2nnc(Nc3ccc(OC)cc3)o2)c(=O)c2cc(Br)c(C)nc21
[1]
  pIC50: 5.07
[13]
  MIC: 5.7 µg/mL (≈ 12.5 µM)
[14]
  MIC: 5.7 µg/mL (≈ 12.5 µM)
[15]
  MIC: 5.7 µg/mL (≈ 12.5 µM)
[16]
  MIC: 5.7 µg/mL (≈ 12.5 µM)
[17]
  MIC: 5.7 µg/mL (≈ 12.5 µM)
[18]
  MIC: 5.7 µg/mL (≈ 12.5 µM)

## CCn1cc(-c2nnc(Nc3ccc(C)cc3)o2)c(=O)c2cc(Br)c(C)nc21
[13]
  MIC: 5.5 µg/mL (≈ 12.5 µM)
[14]
  MIC: 5.5 µg/mL (≈ 12.5 µM)
[15]
  MIC: 5.5 µg/mL (≈ 12.5 µM)
[16]
  MIC: 5.5 µg/mL (≈ 12.5 µM)
[17]
  MIC: 5.5 µg/mL (≈ 12.5 µM)
[18]
  MIC: 5.5 µg/mL (≈ 12.5 µM)

## CCCCCCCOCC[N+]1(C)CCc2ccccc2C1.[I-] (stereo not drawn)
[19]
  MIC: 8 µg/mL
[20]
  MIC: 128 µg/mL
[21]
  MIC: 128 µg/mL

## Cc1ccc(-n2nc(C)c(C(=O)Oc3ncn(-c4ccccc4)n3)c2Cl)cc1
[22]
  MIC: 0.5 µg/mL (≈ 1.27 µM)
[23]
  MIC: 0.5 µg/mL (≈ 1.27 µM)
[24]
  MIC: 0.5 µg/mL (≈ 1.27 µM)
[25]
  MIC: 0.5 µg/mL (≈ 1.27 µM)
